Measurements as given in patent US8673368B2, “Cannabinoid-containing plant extracts as neuroprotective agents” (GW Pharma Limited, priority 2006, dated 2014).

Assays:
NMDA receptor = conditions: cited from earlier work
[1] = isolated or synthetic CBD; cited from earlier work
hippocampal neurones [2] = experiment: Intracellular calcium ion concentration after overnight incubation with 1 μM test article; type: cell-based, Lister-Hooded rat; conditions: for Concentration of intracellular Ca2+ Response (Post-Pre): overnight incubation with 1 μM test article at 37° C., 5% CO2; for Change from control (%): overnight incubation with 1 μM test article, control = naïve culture dishes, minus = reduction
Method: (§1) Standard primary hippocampal cultures were prepared from Lister-Hooded rat pups (1-3 days old), euthanised by cervical dislocation, in accordance with Home Office and institute regulations. The brain was quickly removed, hippocampi dissected out and placed in ice-cold filtered HEPES buffered solution (HBS, composition in mM: NaCl 130; KCl 5.4; CaCl2 1.8; MgCl2 1.0; HEPES 10; glucose 25). Micro-dissection was performed to remove blood vessels and excess, non-hippocampal, tissue.
(§2) The hippocampal tissue was thinly chopped and placed in 1 mg/ml type X and XIV protease solution (40 minutes). The tissue was then washed in HBS and triturated several times using graded fire-polished glass Pasteur pipettes. Following centrifugation, the supernatant was removed and the remaining tissue pellet re-suspended in tissue culture medium (90% Minimum Essential Medium with 10% foetal bovine serum and 2 mM L-glutamine). The tissue was stored at standard conditions: in a humidified incubator at 37° C. and in 5% CO2, and re-centrifuged.
(§3) Excess medium was removed and the tissue pellet re-suspended in culture medium for plating. A drop of cell suspension was placed on the centre of a 35 mm culture dish, coated with poly-L-lysine and incubated at 37° C. for 1 hour. Following this, a further 2 ml of tissue culture medium was gently added to each dish and the culture kept in a humidified incubator (37° C.; 5% CO2).
(§4) Cultures were allowed to mature for 2 days before replacement of MEM with Neurobasal Medium, supplemented with 2% B27, 2 mM L-glutamine, and 25 μM L-glutamate. Culture dishes were used for imaging at 5-10 days in vitro.
(§5) For calcium imaging experiments, hippocampal cultures were washed with HBS at room temperature and loaded with the cell-permeable fluorescent calcium indicator Fura-2-AM (10 μM) for 1 hour in the dark.
(§6) The sodium channel blocker tetrodotoxin (TTX) was added to all perfusion media, to avoid spontaneous cell firing and transmitter release, ensuring only post-synaptic effects were visualised.
(§7) Cultures were perfused with HBS or low Mg^2+HEPES buffered solution for experiments involving NMDA (composition in mM: NaCl 130; KCl 5.4; CaCl2 1.8; MgCl2 0.1; HEPES 10; glucose 25), at a rate of 1-2 ml/min, using a gravity perfusion system.
(§8) A suitable field of cells was identified under the microscope and a greyscale transmission image visualised and captured using Oracal software. A Xenon lamp, which gave a single wavelength of light, was used to expose the cells to 350 nm and 380 nm, specified by the monochromator.
(§9) The ratio of these wavelengths, which is directly proportional to intracellular calcium levels in the cells, was plotted after background fluorescence subtraction.
(§10) The data that were produced were pooled and means for each experiment determined.
(§11) To assess the effects of the test articles under more realistic chronic treatment regimes, cells were incubated overnight with 1 μM sample and responses to increasing doses of NMDA assessed (1, 10 & 100 μM).
(§12) Fluorescent units were converted into %ΔF/F. F is defined as an average of five baseline values before drug application. The value for %ΔF/F is therefore the percentage change in the […] by the average baseline value before drug application.
(§13) All experiments were performed a minimum of three times, each on neurones from a different culture. Only changes in fluorescence >0.1 ratio units were considered as a response. […]

hippocampal neurones [3] = experiment: Response to increasing doses of NMDA after overnight incubation with 1 μM test article; type: cell-based, Lister-Hooded rat
Method: as §1, §2, §3, §4, §5, §6, §7, §8, §9, §10
(§14) A stock of NMDA (10 mM) was made up in double-distilled water and the necessary concentrations made up in HBS. NMDA (with 100 μM glycine) was applied in every experiment to categorically distinguish between neuronal and glial cells in the image obtained.
as §11, §12
as §13, with “response. Data were exported to Excel and statistical analysis performed using Prism. Normality tests confirmed absence of normal distribution of data.” for “response.”

hippocampal neurones [4] = experiment: Acute effect on NMDA calcium ion response following overnight incubation with test article; type: cell-based, Lister-Hooded rat; conditions: for Response (% change): overnight incubation plus acute 1 μM test article, NMDA 10 μM, positive = reduction, minus = increase; for Post-treatment %ΔF/F / Post-treatment [Ca2+] / Pre-treatment %ΔF/F / Pre-treatment [Ca2+]: overnight incubation with 1 μM test article; for Post-treatment %ΔF/F / Post-treatment [Ca2+]: NMDA 10 μM after 5 minute application of 1 μM same test article; for Pre-treatment %ΔF/F / Pre-treatment [Ca2+]: NMDA 10 μM for 2 minutes, before acute application
Method: as §1, §2, §3, §4, §5, §6, §7, §8, §9, §10, §14
In order to assess whether the acute modulatory effects are altered by overnight incubation, the cells were incubated overnight with the 1 μM sample and assessed by comparing an initial two-minute application of NMDA (10 μM) with a subsequent two-minute application of NMDA (10 μM). The subsequent application of the NMDA followed a five minute application of 1 μM test article.
as §12
(§15) All experiments were performed a minimum of three times, each on neurones from a different culture. Only changes in fluorescence >0.1 ratio units were considered as a response. Data were exported to Excel and statistical analysis performed using Prism. […]

hippocampal neurones [5] = experiment: Effect of five-minute application of 1 μM test article on intracellular calcium levels (calcium imaging, Fura-2-AM); type: cell-based, Lister-Hooded rat; conditions: for Concentration of intracellular Ca2+ Post-treatment: after five-minute application of 1 μM test article; for Fura-2 350/380 nm ratio, pre-treatment: baseline before five-minute application of 1 μM test article; for %ΔF/F / Concentration of intracellular Ca2+ Response (Post-Pre): five-minute application of 1 μM test article
Method: as §1, §2, §3, §4, §5, §6, §7, §8, §9, §10
In order to test the regulation of calcium homeostasis in the presence of the test article, the effects were measured in response to a five-minute application of 1 μM sample.
as §12
All experiments were performed a minimum of three times, each on neurones from a different culture. Only changes in fluorescence >0.1 ratio units were considered as a response. Data were exported to Excel and statistical analysis performed using Prism. Normality tests confirmed absence of normal distribution of data. Therefore, a Mann Whitney U test was utilised for paired comparisons and for multiple group comparisons a Kruskal-Wallis test with either a Dunn's or Mann Whitney post-test used.
The effects of the essentially pure cannabinoids, the cannabinoid-containing plant extracts and the cannabinoid-ratioed comparators were assessed to investigate the responses of the neurones to these different forms of cannabinoid.

hippocampal neurones [6] = experiment: Acute modulation of NMDA (10 μM) calcium response by five-minute application of 1 μM test article; type: cell-based, Lister-Hooded rat; conditions: for Pre-treatment %ΔF/F / Pre-treatment [Ca2+]: initial two-minute NMDA (10 μM) application, before test article; for Response (% change): reduction of NMDA (10 μM) calcium response by 1 μM test article, positive = reduction; for Post-treatment %ΔF/F / Post-treatment [Ca2+]: second two-minute NMDA (10 μM) application after five minutes of 1 μM test article
Method: as §1, §2, §3, §4, §5, §6, §7, §8, §9, §10, §14
The acute modulatory effect of calcium homeostasis was assessed by comparing an initial two-minute application of NMDA (10 μM) with a subsequent two-minute application of NMDA (10 μM). The subsequent application of the NMDA followed a five minute application of 1 μM sample.
as §12
as §15, with “Prism. Normality tests confirmed absence of normal distribution of data.” for “Prism.”

[7] = system: neuronal cultures exposed to glutamate; conditions: in vitro, isolated or synthetic cannabinoid; cited from earlier work

SMILES | Concentration of intracellular Ca2+ Response (Post-Pre) (hippocampal neurones [2]) | Change from control (%) (hippocampal neurones [2]) | %ΔF/F (hippocampal neurones [3]; 1 μM NMDA) [%] | Concentration of intracellular Ca2+ Post-treatment (hippocampal neurones [3]; 1 μM NMDA) | Concentration of intracellular Ca2+ Pre-treatment (hippocampal neurones [3]; 1 μM NMDA) | Concentration of intracellular Ca2+ Response (Post-Pre) (hippocampal neurones [3]; 1 μM NMDA) | %ΔF/F (hippocampal neurones [3]; 10 μM NMDA) [%] | Concentration of intracellular Ca2+ Post-treatment (hippocampal neurones [3]; 10 μM NMDA) | Concentration of intracellular Ca2+ Pre-treatment (hippocampal neurones [3]; 10 μM NMDA) | Concentration of intracellular Ca2+ Response (Post-Pre) (hippocampal neurones [3]; 10 μM NMDA) | %ΔF/F (hippocampal neurones [3]; 100 μM NMDA) [%] | Concentration of intracellular Ca2+ Post-treatment (hippocampal neurones [3]; 100 μM NMDA) | Concentration of intracellular Ca2+ Pre-treatment (hippocampal neurones [3]; 100 μM NMDA) | Concentration of intracellular Ca2+ Response (Post-Pre) (hippocampal neurones [3]; 100 μM NMDA) | Response (% change) (hippocampal neurones [4]) [%] | Post-treatment %ΔF/F (hippocampal neurones [4]) [%] | Post-treatment [Ca2+] (hippocampal neurones [4]) | Pre-treatment %ΔF/F (hippocampal neurones [4]) [%] | Pre-treatment [Ca2+] (hippocampal neurones [4]) | Concentration of intracellular Ca2+ Post-treatment (hippocampal neurones [5]) | further results
O=C(O)[C@@H]1C[C@H](CP(=O)(O)O)CCN1 (racemic) [Selfotel] | – | – | – | – | – | – | – | – | – | – | – | – | – | – | – | – | – | – | – | – | Mortality rate versus placebo (NMDA receptor; stroke patients): trends towards a higher mortality rate
CN1CC[C@@]23CCCC[C@@H]2[C@@H]1Cc1ccc(O)cc13 [Dextrorphan] | – | – | – | – | – | – | – | – | – | – | – | – | – | – | – | – | – | – | – | – | Side effects (NMDA receptor; human subjects): hallucinations, agitation and hypotension
C=C(C)[C@@H]1CCC(C)=C[C@H]1c1c(O)cc(CCCCC)cc1O [P-CBD, cannabidiol] | 0.893 | 13.2 | 43.80 | 0.410 | 0.933 | −0.523 | 53.54 | 0.489 | 0.913 | −0.424 | 141.57 | 1.289 | 0.910 | 0.379 | −68.6 | 71.97 | 0.715 | 52.42 | 0.424 | 1.172 | Difference between treated and placebo treated animals [1]: failed to find a difference; Response (% change) (hippocampal neurones [4]; listed as essentially pure CBD): increased the concentration to a large extent; Fura-2 350/380 nm ratio, pre-treatment (hippocampal neurones [5]): 0.805; %ΔF/F (hippocampal neurones [5]): 45.45%; Concentration of intracellular Ca2+ Response (Post-Pre) (hippocampal neurones [5]): 0.367; Pre-treatment %ΔF/F (hippocampal neurones [6]): 91.70%; Pre-treatment [Ca2+] (hippocampal neurones [6]): 0.722; Response (% change) (hippocampal neurones [6]): 58.2%; Response (% change) (hippocampal neurones [6]; listed as essentially pure CBD): far greater reduction; Post-treatment %ΔF/F (hippocampal neurones [6]): 32.91%; Post-treatment [Ca2+] (hippocampal neurones [6]): 0.302; Prevention of glutamate toxicity [7]: prevented to some extent
CCCCCc1cc(O)c2c(c1)OC(C)(C)[C@@H]1CCC(C)=C[C@@H]21 [P-THC, tetrahydrocannabinol] | 0.826 | 6.2 | 62.24 | 0.522 | 0.839 | −0.317 | 57.50 | 0.498 | 0.866 | −0.368 | 200.35 | 1.897 | 0.947 | 0.950 | −28.5 | 38.93 | 0.487 | 46.53 | 0.379 | 0.588 | Change from control (%) (hippocampal neurones [2]; listed as essentially pure THC): increase; Concentration of intracellular Ca2+ Response (Post-Pre) (hippocampal neurones [3]; 1 μM NMDA, listed as essentially pure THC): did not reduce the concentration of calcium ions as much as the others; Fura-2 350/380 nm ratio, pre-treatment (hippocampal neurones [5]): 0.363; %ΔF/F (hippocampal neurones [5]): 56.38%; Concentration of intracellular Ca2+ Response (Post-Pre) (hippocampal neurones [5]): 0.225; Pre-treatment %ΔF/F (hippocampal neurones [6]): 93.69%; Pre-treatment [Ca2+] (hippocampal neurones [6]): 0.741; Response (% change) (hippocampal neurones [6]): 19.6%; Response (% change) (hippocampal neurones [6]; listed as essentially pure THC): lowest amount of reduction; Post-treatment %ΔF/F (hippocampal neurones [6]): 63.81%; Post-treatment [Ca2+] (hippocampal neurones [6]): 0.596; Prevention of glutamate toxicity [7]: prevented to some extent
